Values of other authors, collected in patent US11021501B2, “Creatine phosphate analog prodrugs, compositions and methods of use thereof” (Farmington Pharma Development, priority 2015, dated 2021).
Like-named read-outs stand apart in the source and are kept apart here.

Key:
[1] = tested on: creatine phosphate levels
[2] = animals fed a diet containing up to 1%

SMILES: CN(CC(=O)O)C(=N)NP(=O)(O)O [Creatine phosphate, creatine phosphate]
- adverse side effects (patients with cardiac diseases, intravenous injection up to 8 gm/day): without adverse side effects

SMILES: CN(CC(=O)O)C(=N)N [creatine]
- overall increase of creatine phosphate levels ([1]; creatine supplementation over weeks): < 50%
- duration of increase in tissue creatine phosphate levels ([1]; following oral creatine supplementation): > 14 days
- increase of cerebral creatine phosphate ([1]; healthy volunteers, oral creatine administration): about 10%

SMILES: NC1=NCCN1CC(=O)O [cyclocreatine]
- adverse effects [2]: do not exhibit adverse effects

SMILES: CN(CC(=O)O)C(=N)N.O [creatine monohydrate]
- adverse side effects (athletes and body builders, 2-3 gm/day): without adverse side effects
